Legend:
[1] = tested on: Pseudomonas aeruginosa ATCC 27853; test: disk diffusion assay; format: cell-based; conditions: A3-5-1 10 micrograms; Chloramphenicol 30 micrograms; MHA 35° C.
[2] = tested on: Enterococcus faecalis ATCC 29212; test: disk diffusion assay; format: cell-based; conditions: MHA 35° C.
[3] = tested on: Enterococcus faecalis ATCC 51299; test: disk diffusion assay; format: cell-based; conditions: A3-5-1 10 micrograms; Chloramphenicol 30 micrograms; MHA 35° C.
[4] = tested on: Staphylococcus aureus ATCC 29213; test: disk diffusion assay; format: cell-based; conditions: MHA 35° C.
[5] = tested on: Acinetobacter sp. ATCC 49137; test: disk diffusion assay; format: cell-based; conditions: A3-5-1 10 micrograms; Chloramphenicol 30 micrograms; MHA 35° C.
[6] = tested on: Streptococcus pneumoniae ATCC 49619; test: disk diffusion assay; format: cell-based; conditions: A3-5-1 10 micrograms; Chloramphenicol 30 micrograms; MHA w/5% dsb 35° C. w/5% CO2
[7] = tested on: Escherichia coli ATCC 25922; test: disk diffusion assay; format: cell-based; conditions: MHA 35° C.
[8] = tested on: S. epidermis ATCC 12228; test: disk diffusion assay; format: cell-based, Staphylococcus epidermidis; conditions: MHA 35° C.
[9] = tested on: S. maltophilia ATCC 13637; test: disk diffusion assay; format: cell-based, Stenotrophomas maltophilia; conditions: MHA 35° C.
[10] = tested on: Shigella dysenteriae ATCC 11835; test: disk diffusion assay; format: cell-based
[11] = tested on: Enterococcus faecium ATCC 49624; test: disk diffusion assay; format: cell-based; conditions: for Disk Diffusion, Enterococcus faecium 49624: MHA 35° C.
[12] = tested on: Enterococcus faecium ATCC 51559; test: disk diffusion assay; format: cell-based; conditions: 10 micrograms per disk; ciprofloxacin 5, vancomycin 30 micrograms per disk; 35° C.
[13] = tested on: B. subtilis 1A757; test: microbe, parasite or virus in culture; format: cell-based, Bacillus subtilis
[14] = tested on: Human Cervical Cancer Epithelial ME180; test: CellTiter 96 Aqueous Non-Radioactive Cell Proliferation Assay; format: cell-based; conditions: Homo sapiens, ME-180; 48 hours; Table 7; read-out: IC50 Human Cervical Cancer Epithelial ME180
Procedure, shortened: (§1)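 Cells rested 5 h at 37° C after seeding, then treated in triplicate with two-fold serial dilutions of compound. A-549 and ME-180 were exposed for 48 h. After 1–4 h MTS reagent at 37° C, OD490 was read and corrected by subtracting medium-only blanks.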

[15] = tested on: Human Lung Cancer Epithelial A549; test: as above; format: cell-based; conditions: Homo sapiens, A549; 48 hours; Table 7; read-out: IC50 Human Lung Cancer Epithelial A549
Procedure, shortened: as §1

[16] = tested on: DNA synthesis in Bacillus subtilis; test: macromolecular synthesis whole cell assay, [3H]thymidine incorporation; format: cell-based; conditions: 1×MIC
[17] = tested on: Protein synthesis in Bacillus subtilis; test: macromolecular synthesis whole cell assay, [3H]amino acid mixture incorporation; format: cell-based; conditions: 1×MIC
[18] = tested on: Eschericia coli ATCC 10536; test: disk diffusion assay; conditions: A3-5-1 10 micrograms; Chloramphenicol 30 micrograms; MHA 35° C.
[19] = tested on: Eschericia coli ATCC 35218; test: disk diffusion assay; conditions: A3-5-1 10 micrograms; Chloramphenicol 30 micrograms; MHA 35° C.
[20] = tested on: Haemophilus influenzae ATCC 49247; test: disk diffusion assay; conditions: A3-5-1 10 micrograms; Chloramphenicol 30 micrograms; HTM 35° C. with 5% CO2
[21] = tested on: Neiseseria gonorrhoeae ATCC 49266; test: disk diffusion assay; conditions: A3-5-1 10 micrograms; Chloramphenicol 30 micrograms; GCA w/ 1% supplement in 5% CO2
[22] = tested on: Salmonella typhimurium ATCC 13311; test: disk diffusion assay; conditions: MHA 35° C.
[23] = tested on: Micrococcus luteus ATCC 9341; test: disk diffusion assay; conditions: kakadumycin B at 10 μg; control antibiotic; MHA 35° C.
[24] = tested on: Staphylococcus aureus (GISA) ATCC 700699; test: disk diffusion assay; conditions: MHA 35° C.
[25] = tested on: Staphylococus aureus (GISA) ATCC 700787; test: disk diffusion assay; conditions: A3-5-1 10 micrograms; Chloramphenicol 30 micrograms; MHA 35° C.
[26] = A3-5-1 10 micrograms, Chloramphenicol 30 micrograms
[27] = kakadumycin B at 10 μg, control antibiotic

With O=C(N[C@H](CO)[C@H](O)c1ccc([N+](=O)[O-])cc1)C(Cl)Cl [Chloramphenicol, reference compound] the “Disk Diffusion, Pseudomonas aeruginosa 27853” value [1] was “R”, the “Disk Diffusion, Enterococcus faecalis 29212” value [2, 26] was 20 mm and the “Disk Diffusion, Enterococcus faecalis 29212” value [2, 27] was 20 mm. The “Disk Diffusion, Enterococcus faecalis (VRE) 51299” value [3] was 8 mm, the “Disk Diffusion, Staphylococcus aureus 29213” value [4, 26] was 25 mm and the “Disk Diffusion, Staphylococcus aureus 29213” value [4, 27] was 19 mm. For the same compound, the “Disk Diffusion, Acinetobacter spp. 49137” value [5] was 8 mm, the “Disk Diffusion, Streptococcus pneumoniae 49619” value [6] was 22 mm and the “Disk Diffusion, Eschericia coli 25922” value [7, 26] was 29 mm. For the same compound, the “Disk Diffusion, Escherichia coli 25922” value [7, 27] was 26 mm, the “Disk Diffusion, Staphylococcus epidermidis 12228” value [8, 26] was 30 mm and the “Disk Diffusion, Staphylococcus epidermidis 12228” value [8, 27] was 31 mm. The “Disk Diffusion, Stenotrophomas maltophilia 13637” value [9, 26] was 28 mm, the “Disk Diffusion, Stenotrophomas maltophilia 13637” value [9, 27] was 25 mm and the “diameter of the zone of inhibition, Shigella dysenteriae ATCC 11835” value ([10]; 10 micrograms per disk, 35° C.) was 11 mm. The “Disk Diffusion, Shigella dysenteriae 11835” value ([10]; A3-5-1 10 micrograms, Chloramphenicol 30 micrograms, MHA 35° C.) was 40 mm, the “diameter of the zone of inhibition, Enterococcus faecium ATCC 49624” value ([11]; 10 micrograms per disk, ciprofloxacin 5, vancomycin 30 micrograms per disk, 35° C.) was 24 mm and the “Disk Diffusion, Enterococcus faecium 49624” value [11, 26] was 25 mm. The “Disk Diffusion, Enterococcus faecium 49624” value [11, 27] was 20 mm, the “diameter of the zone of inhibition, Enterococcus faecium ATCC 51559” value [12] was 24 mm and the “1×MIC against Bacillus subtilis” value [13] was 4 micrograms/ml. For the same compound, the IC50 [14] was greater than 40 µg/mL, the IC50 [15] was greater than 40 µg/mL and the “% [3H]thymidine (DNA synthesis) incorporation of that of the untreated culture” value ([16]; 5 min) was 58%. The “% [3H]thymidine (DNA synthesis) incorporation of that of the untreated culture” value ([16]; 10 min) was 44%, the “% [3H]amino acid mixture (Protein synthesis) incorporation of that of the untreated culture” value ([17]; 5 min) was 44% and the “% [3H]amino acid mixture (Protein synthesis) incorporation of that of the untreated culture” value ([17]; 10 min) was 36%. The “Disk Diffusion, Eschericia coli 10536” value [18] was 28 mm, the “Disk Diffusion, Eschericia coli 35218” value [19] was “R” and the “Disk Diffusion, Haemophilus influenzae 49247” value [20] was 23 mm. The “Disk Diffusion, Neiseseria gonorrhoeae 49266” value [21] was 33 mm, the “Disk Diffusion, Salmonella typhimurium 13311” value [22, 26] was 28 mm and the “Disk Diffusion, Salmonella typhimurium 13311” value [22, 27] was 28 mm. For the same compound, the “Disk Diffusion, Micrococcus luteus 9341” value [23] was 29 mm, the “Disk Diffusion, Staphylococcus aureus (GISA) 700699” value [24, 26] was 26 mm and the “Disk Diffusion, Staphylococcus aureus (GISA) 700699” value [24, 27] was 29 mm. For the same compound, the “Disk Diffusion, Staphylococus aureus (GISA) 700787” value [25] was 29 mm.

— patent US7259004B1, “Endophytic streptomycetes from higher plants with biological activity” (Montana State University, priority 2002, dated 2007)
